target: T1, integrin α4β7 (Homo sapiens, UniProt P13612+P26010); assay: Integrin α4β7—MAdCAM-1 competition assay (ELISA); type: binding; details: ratio a4b1 ELISA IC50 / a4b7 ELISA IC50
T1 sequence (P13612 34-977 limits assumed): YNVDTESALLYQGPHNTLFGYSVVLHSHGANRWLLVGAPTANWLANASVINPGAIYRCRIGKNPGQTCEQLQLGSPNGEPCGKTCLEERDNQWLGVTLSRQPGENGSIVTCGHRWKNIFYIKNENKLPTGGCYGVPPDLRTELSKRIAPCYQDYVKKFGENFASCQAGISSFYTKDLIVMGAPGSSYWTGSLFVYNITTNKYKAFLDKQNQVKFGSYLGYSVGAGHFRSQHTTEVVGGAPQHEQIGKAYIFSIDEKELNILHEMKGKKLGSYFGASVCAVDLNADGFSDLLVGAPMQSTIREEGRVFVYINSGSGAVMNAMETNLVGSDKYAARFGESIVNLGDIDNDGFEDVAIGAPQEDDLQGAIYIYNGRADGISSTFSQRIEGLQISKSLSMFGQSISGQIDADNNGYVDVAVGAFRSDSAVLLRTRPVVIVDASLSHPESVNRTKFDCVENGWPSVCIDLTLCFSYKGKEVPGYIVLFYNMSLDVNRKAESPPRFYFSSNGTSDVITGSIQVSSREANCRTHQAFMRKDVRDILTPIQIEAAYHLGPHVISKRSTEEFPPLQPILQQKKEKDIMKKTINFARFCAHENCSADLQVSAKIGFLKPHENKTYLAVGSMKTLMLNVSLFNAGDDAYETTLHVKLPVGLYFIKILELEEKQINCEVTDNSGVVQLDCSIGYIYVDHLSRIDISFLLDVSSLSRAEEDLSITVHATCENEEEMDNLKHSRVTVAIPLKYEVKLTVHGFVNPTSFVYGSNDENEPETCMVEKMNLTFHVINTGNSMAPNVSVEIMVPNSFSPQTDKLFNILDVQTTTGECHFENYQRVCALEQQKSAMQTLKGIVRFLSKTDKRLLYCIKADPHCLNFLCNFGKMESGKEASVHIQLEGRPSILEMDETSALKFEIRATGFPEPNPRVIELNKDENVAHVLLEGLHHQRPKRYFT
T1 sequence (P26010 20-723 limits assumed): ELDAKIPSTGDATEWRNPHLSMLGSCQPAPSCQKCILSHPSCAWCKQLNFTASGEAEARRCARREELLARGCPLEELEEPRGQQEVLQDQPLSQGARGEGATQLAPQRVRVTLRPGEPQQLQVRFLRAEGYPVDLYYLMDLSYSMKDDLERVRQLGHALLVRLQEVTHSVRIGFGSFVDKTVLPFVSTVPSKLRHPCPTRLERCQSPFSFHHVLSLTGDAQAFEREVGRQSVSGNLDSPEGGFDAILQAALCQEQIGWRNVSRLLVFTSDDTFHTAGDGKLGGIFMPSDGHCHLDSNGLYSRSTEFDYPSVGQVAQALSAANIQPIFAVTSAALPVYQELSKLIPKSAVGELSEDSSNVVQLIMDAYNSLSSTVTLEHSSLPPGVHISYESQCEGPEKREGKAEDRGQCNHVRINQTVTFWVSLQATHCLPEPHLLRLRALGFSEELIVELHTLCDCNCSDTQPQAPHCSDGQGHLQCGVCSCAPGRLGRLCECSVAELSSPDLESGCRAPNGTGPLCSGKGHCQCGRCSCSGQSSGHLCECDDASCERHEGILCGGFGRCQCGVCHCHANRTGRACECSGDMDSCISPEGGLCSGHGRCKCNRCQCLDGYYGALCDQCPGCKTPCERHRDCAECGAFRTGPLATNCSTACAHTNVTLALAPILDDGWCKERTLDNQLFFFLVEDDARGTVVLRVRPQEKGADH
Experimental: Integrin α4β7—MAdCAM-1 Competition Assay
The plate was incubated at 4° C. overnight. […] The plate was then incubated for 1 hour at room temperature. The plate was washed three times with wash buffer (50 mM Tris, 100 mM NaCl, 1 mM MnCl2, 0.05% Tween). To each well, 50 μl of compound diluted in assay buffer was added by transfer from a compound serial dilution plate. […] The plate was incubated at room temperature with shaking for 2 hours to reach binding equilibrium. Then the plate was washed three times in wash buffer and 100 μl anti-human IgG Fc specific-horseradish peroxidase (HRP) (Abcam, Ab97225) diluted at 1:2000 in assay buffer was added to each well. The plate was incubated at room temperature for 1 hour under agitation. The plates were then washed three times and 100 μl of 1,3′,5,5′-tetramethylbenxidie (TMB) was then added to each well.

SMILES	Selectivity ELISA
CC(C)C[C@@H]1NC(=O)c2ccc(-c3ccncc3)c(c2)CNC(=O)[C@H](Cc2ccc(O)cc2)NC(=O)[C@@H]2CCCN2[C@H](C(=O)NC(C)(C)C)[C@H](C)NC(=O)[C@H]([C@@H](C)O)NC(=O)[C@H](CC(=O)O)NC1=O [Compound 337]	2.9
CC(C)C[C@@H]1NC(=O)[C@H](Cc2csc(-c3ccncc3)n2)NC(=O)[C@@H]2CCCN2[C@H](C(=O)NC(C)(C)C)[C@H](C)NC(=O)[C@H]([C@@H](C)O)NC(=O)[C@H](CC(=O)O)NC1=O [Compound 97]	2.5
CC(C)C[C@@H]1NC(=O)C[C@H](CCCCN)NC(=O)[C@H](Cc2ccc(CN)cc2)NC(=O)[C@@H]2CCCN2[C@H](C(=O)NC(C)(C)C)[C@H](C)NC(=O)[C@H](C(C)C)NC(=O)[C@H](CC(=O)O)NC1=O [Compound 254]	33.0
CC(C)C[C@@H]1NC(=O)C[C@H](CCCCN)NC(=O)C2(Cc3ccccc3C2)NC(=O)[C@@H]2CCCN2[C@H](C(=O)NC(C)(C)C)[C@H](C)NC(=O)[C@H]([C@@H](C)O)NC(=O)[C@H](CC(=O)O)NC1=O [Compound 288]	12.2
CC(C)C[C@@H]1NC(=O)[C@H](Cc2ccc(O)cc2)NC(=O)[C@@H]2CCCN2[C@H](C(=O)NC(C)(C)C)[C@H](C)NC(=O)[C@H](C(C)(C)S)NC(=O)[C@H](CC(=O)O)NC1=O [Compound 55]	1.1
CC(C)C[C@@H]1NC(=O)C[C@H](CCCCN)NC[C@H](Cc2ccc(CN)cc2)NC(=O)[C@@H]2CCCN2[C@H](C(=O)NC(C)(C)C)[C@H](C)NC(=O)[C@H]([C@@H](C)O)NC(=O)[C@H](CC(=O)O)NC1=O [Compound 218]	16.5
CC(C)C[C@@H]1NC(=O)c2ccc(-c3ccccc3N3CCNCC3)c(c2)CNC(=O)[C@@H]2CCCN2[C@H](C(=O)NC(C)(C)C)[C@H](C)NC(=O)[C@H]([C@@H](C)O)NC(=O)[C@H](CC(=O)O)NC1=O [Compound 348]	1.5
CC(C)C[C@@H]1NC(=O)CN(C)C(=O)[C@H](Cc2csc(-c3ccccn3)n2)NC(=O)[C@@H]2CCCN2[C@H](C(=O)NC(C)(C)C)[C@H](C)NC(=O)[C@H]([C@@H](C)O)NC(=O)[C@H](CC(=O)O)NC1=O [Compound 179]	15.2
CC(C)C[C@@H]1NC(=O)c2ccc(-c3cccc(CN)c3)c(c2)CNC(=O)[C@H](Cc2ccc(O)cc2)NC(=O)[C@@H]2CCCN2[C@H](C(=O)NC(C)(C)C)[C@H](C)NC(=O)[C@H]([C@@H](C)O)NC(=O)[C@H](CC(=O)O)NC1=O [Compound 339]	5.8
CC(C)C[C@@H]1NC(=O)[C@H](Cc2ccccc2)NC(=O)[C@@H]2C[C@@H](F)CN2[C@H](C(=O)NC(C)(C)C)[C@H](C)NC(=O)[C@H]([C@@H](C)O)NC(=O)[C@H](CC(=O)O)NC1=O [Compound 45]	3.2
CC(C)C[C@@H]1NC(=O)CN(C)C(=O)[C@H](Cc2ccc(I)cc2)NC(=O)[C@@H]2CCCN2[C@H](C(=O)NC(C)(C)C)[C@H](C)NC(=O)[C@H]([C@@H](C)O)NC(=O)[C@H](CC(=O)O)NC1=O [Compound 107]	16.0
CC(C)C[C@@H]1NC(=O)[C@H](Cc2ccc3ccccc3c2)NC(=O)[C@@H]2CCCN2[C@H](C(=O)NC(C)(C)C)[C@H](C)NC(=O)[C@H]([C@@H](C)O)NC(=O)[C@H](CC(=O)O)NC1=O [Compound 10]	1.3
CC[C@H](C)[C@@H]1NC(=O)[C@H](CC(=O)O)NC(=O)[C@H](CC(C)C)NC(=O)[C@H](Cc2c[nH]c3ccccc23)NC(=O)[C@@H]2CCCN2[C@H](C(=O)NC(C)(C)C)[C@H](C)NC1=O [Compound 8]	0.9
CC(C)C[C@@H]1NC(=O)C[C@H](CCCCN)NC(=O)[C@H](Cc2ccc(I)cc2)NC(=O)[C@@H]2CCCN2[C@H](C(=O)NC(C)(C)C)[C@H](C)NC(=O)[C@H]([C@@H](C)O)NC(=O)[C@H](CC(=O)O)NC1=O [Compound 260]	58.1
CC(C)C[C@@H]1NC(=O)[C@H]2C[C@H](O)CN2C(=O)[C@H](Cc2cscn2)NC(=O)[C@@H]2CCCN2[C@H](C(=O)NC(C)(C)C)[C@H](C)NC(=O)[C@H]([C@@H](C)O)NC(=O)[C@H](CC(=O)O)NC1=O [Compound 151]	4.1
CC(C)C[C@@H]1NC(=O)C2(CCCC2)NC(=O)[C@H](Cc2ccc(O)cc2)NC(=O)[C@@H]2CCCN2[C@H](C(=O)NC(C)(C)C)[C@H](C)NC(=O)[C@H]([C@@H](C)O)NC(=O)[C@H](CC(=O)O)NC1=O [Compound 104]	4.2
CO[C@H](C)[C@@H]1NC(=O)[C@H](CC(=O)O)NC(=O)[C@H](CC(C)C)NC(=O)[C@H](Cc2ccccc2)NC(=O)[C@@H]2CCCN2[C@H](C(=O)NC(C)(C)C)[C@H](C)NC1=O [Compound 40]	1.9
CC[C@H](C)[C@@H]1NC(=O)[C@H](CC(=O)O)NC(=O)[C@H](CC(C)C)NC(=O)C[C@H](CCCCN)NC(=O)[C@H](Cc2ccc(CN)cc2)NC(=O)[C@@H]2CCCN2[C@H](C(=O)NC(C)(C)C)[C@H](C)NC1=O [Compound 215]	12.4
CC(C)C[C@@H]1NC(=O)[C@@H]2C[C@@H](OCc3ccccc3)CN2C(=O)[C@@H]2CCCN2[C@H](C(=O)NC(C)(C)C)[C@H](C)NC(=O)[C@H]([C@@H](C)O)NC(=O)[C@H](CC(=O)O)NC1=O [Compound 57]	2.5
CC(C)C[C@@H]1NC(=O)CN(C)C(=O)[C@H](Cc2cccc3ccccc23)NC(=O)[C@@H]2CCCN2[C@H](C(=O)NC(C)(C)C)[C@H](C)NC(=O)[C@H]([C@@H](C)O)NC(=O)[C@H](CC(=O)O)NC1=O [Compound 117]	8.7
CC(C)C[C@@H]1NC(=O)C[C@H](CCCCN)NC(=O)[C@](C)(Cc2ccccc2)NC(=O)[C@@H]2CCCN2[C@H](C(=O)NC(C)(C)C)[C@H](C)NC(=O)[C@H]([C@@H](C)O)NC(=O)[C@H](CC(=O)O)NC1=O [Compound 263]	23.1
CC(C)C[C@@H]1NC(=O)C[C@H](CCCCN)NC(=O)C2(CCNCC2)NC(=O)[C@@H]2CCCN2[C@H](C(=O)NC(C)(C)C)[C@H](C)NC(=O)[C@H]([C@@H](C)O)NC(=O)[C@H](CC(=O)O)NC1=O [Compound 275]	7.7
CC[C@@H](C)[C@@H]1NC(=O)[C@H](CC(=O)O)NC(=O)[C@H](CC(C)C)NC(=O)C[C@H](CCCCN)NC(=O)[C@H](Cc2ccc(CN)cc2)NC(=O)[C@@H]2CCCN2[C@H](C(=O)NC(C)(C)C)[C@H](C)NC1=O [Compound 285]	6.2
CCO[C@H](C)[C@@H]1NC(=O)[C@H](CC(=O)O)NC(=O)[C@H](CC(C)C)NC(=O)[C@H](Cc2ccccc2)NC(=O)[C@@H]2CCCN2[C@H](C(=O)NC(C)(C)C)[C@H](C)NC1=O [Compound 41]	2.5
COc1cccc(-c2ccccc2C[C@@H]2NC(=O)[C@@H]3CCCN3[C@H](C(=O)NC(C)(C)C)[C@H](C)NC(=O)[C@H]([C@@H](C)O)NC(=O)[C@H](CC(=O)O)NC(=O)[C@H](CC(C)C)NC(=O)[C@H]3CCCCN3C2=O)c1 [Compound 136]	6.6
Cc1cccc(C)c1-c1ccc(C[C@@H]2NC(=O)[C@@H]3CCCN3[C@H](C(=O)NC(C)(C)C)[C@H](C)NC(=O)[C@H]([C@@H](C)O)NC(=O)[C@H](CC(=O)O)NC(=O)[C@H](CC(C)C)NC(=O)C[C@H](CCCCN)NC2=O)cc1 [Compound 268]	24.6

Reference: US11072616B2, “Cyclic peptides targeting alpha-4-beta-7 integrin” (Zealand Pharma A/S, priority 2015, dated 2021)
